Source: patent US20260008760A1, “DIPEPTIDYL PEPTIDASE 1 INHIBITORS AND USES THEREOF” (Insmed Incorporated, priority 2024, published 2026)

Legend:
DPP1 in HL-60 cells = DPP1 in HL-60 cells (Homo sapiens, UniProt P53634); experiment: DPP1 Cell Single-Point Percent Inhibition Testing; type: cell-based; design: host or cells: HL-60 cells; details: final compound concentration 5 nM, n = 1
Experimental: Example 100. DPP1 Cell Single-Point Percent Inhibition Testing
HL-60 cells (ATCC; Manassas, VA) were maintained in RPMI-1640 supplemented with 20% heat-inactivated FBS and 1× Antibiotic Antimycotic (Cytiva; Marlborough, MA). Media was changed every three to four days and cells were not allowed to exceed 1×10^6 cells per mL. Prior to assay, cells were collected by centrifugation at 500 rcf for 3 minutes, resuspended in RPMI (with no additional supplements) and counted. Cells were diluted in RPMI to a concentration of 5×10^5 live cells per mL and transferred to black 96-well plates for assay, 60 μL per well. Test articles were diluted to 25 nM in RPMI plus 0.5% DMSO, and 20 μL was added to each assay well. Compound was allowed to pre-incubate with cells with gentle shaking at 100 rpm for 60 minutes at 37° C. in a cell culture incubator maintained at 5% CO2, after which 20 μL of 500 μM H-Gly-Phe-AFC cell-permeable substrate (MP Biomedicals; Solon, OH) in RPMI was added to each well, giving final compound concentration of 5 nM, a final substrate concentration of 100 μM and a final DMSO concentration of 0.1%. Plates were returned to the incubator with shaking at 100 rpm for 30 minutes, after which fluorescence was measured at Excitation/Emission 400/505 nm. Percent Inhibition was calculated from RFU values by first subtracting background values (wells in which RPMI was substituted for cells) from each well, and then subtracting background-subtracted RFU derived from wells that received a final concentration of 10 μM brensocatib. This value represents the non-specific substrate cleavage from the HL-60 cells, and the remaining RFU should theoretically be solely the contribution of DPP1 enzyme activity. The final percent inhibition value was calculated for each test article based on remaining RFU compared to RFU from wells that received only vehicle control.

human DPP1 enzyme = human DPP1 enzyme (Homo sapiens, UniProt P53634); experiment: Human DPP1 Enzyme Single-Point Percent Inhibition Testing (HL-60 lysate); type: biochemical; design: A crude lysate of HL-60 cells (ATCC; Manassas, VA) was used as a source of human DPP1 enzyme; host or cells: HL-60 cells (crude lysate); details: final compound concentration of 10 nM, 400 μM H-Gly-Arg-AMC, n = 1
Chain of human DPP1 enzyme (P53634 25-463): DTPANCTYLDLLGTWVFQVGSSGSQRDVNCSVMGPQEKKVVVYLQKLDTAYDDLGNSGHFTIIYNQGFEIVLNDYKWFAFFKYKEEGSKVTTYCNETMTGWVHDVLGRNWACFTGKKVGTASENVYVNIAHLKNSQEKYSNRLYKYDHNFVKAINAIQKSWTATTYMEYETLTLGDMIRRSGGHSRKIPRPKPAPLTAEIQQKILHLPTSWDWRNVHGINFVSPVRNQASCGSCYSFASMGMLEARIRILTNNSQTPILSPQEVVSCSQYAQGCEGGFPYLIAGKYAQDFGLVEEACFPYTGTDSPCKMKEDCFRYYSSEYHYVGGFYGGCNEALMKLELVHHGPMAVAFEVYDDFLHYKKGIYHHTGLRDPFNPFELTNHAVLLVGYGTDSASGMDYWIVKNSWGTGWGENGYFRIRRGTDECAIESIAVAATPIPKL
Experimental: Example 98. Human DPP1 Enzyme Single-Point Percent Inhibition Testing
A crude lysate of HL-60 cells (ATCC; Manassas, VA) was used as a source of human DPP1 enzyme in the assay. Lysate was prepared in 1% Triton X-100 in PBS at a concentration of 20,000 live cells per μL of lysis buffer and was centrifuged at 16,000 rcf for 10 minutes at 4° C., after which supernatant was collected and flash-frozen in liquid nitrogen. Test articles were applied to human DPP1 enzyme in Assay Buffer (25 mM MES pH 6.0, 50 mM NaCl, 5 mM DTT) in a total reaction volume of 125 μL. 25 μL of compound diluted to 50 nM in Assay Buffer plus 5% DMSO was first added to 50 μL of HL-60 lysate diluted to contain a DPP1 enzyme concentration of roughly 1 ng/μL and allowed to pre-incubate for 10 minutes at 37° C. after which 50 μL of 1000 μM H-Gly-Arg-AMC substrate (Bachem; St. Torrance, CA) was added, giving final compound concentration of 10 nM, a final substrate concentration of 400 μM and a final DMSO concentration of 1%. Substrate cleavage was measured for 90 minutes at 37° C., with fluorescence at Excitation/Emission 350/450 nm measured every 5 minutes. DPP1 concentration was interpolated based on its activity relative to a standard curve of activated human recombinant DPP1 enzyme. Percent inhibition at 10 nM was calculated for each test article based on remaining DPP1 activity compared to enzyme activity in wells that received only vehicle control.

Chain of DPP1 in HL-60 cells (P53634 25-463): as above

SMILES | inhibition at 0.005 µM (DPP1 in HL-60 cells) [%] | inhibition at 0.01 µM (human DPP1 enzyme) [%]
Cc1ncc(C)n2cc(-c3ccc(C[C@@H](C#N)NC(=O)[C@@H]4CNCCCO4)cc3)cc12 [Compound A140] | 76.5 to 93.9 | ≤ 40
Cc1nc(C)c2cc(-c3ccc(C[C@@H](C#N)NC(=O)[C@@H]4CN[C@@H](C)[C@@H](O)CO4)cc3)cn2c1C [Compound A135] | ≤ 76.5 | ≤ 40
CO[C@@H]1CCNC[C@@H](C(=O)NC(C#N)Cc2cc3c(cc2F)-c2cc(C#N)ccc2CO3)OC1 (stereo partly drawn) [Compound B21] | 76.5 to 93.9 | ≥ 66.7
CN1CCC(n2ncc3ccc(-c4ccc(C[C@@H](C#N)NC(=O)[C@@H]5CNCCCO5)c(F)c4)cc32)CC1 [Compound A144] | ≤ 76.5 | 40 to 66.7
Cn1c(=O)oc2ccc3c(c21)COc1cc(CC(C#N)NC(=O)[C@@H]2CNCCCCO2)c(F)cc1-3 (stereo partly drawn) [Compound C26] | ≤ 76.5 | ≤ 40
C[C@@H]1NC[C@@H](C(=O)NC(C#N)Cc2cc3c(cc2F)-c2cc4c(cc2CO3)oc(=O)n4C)OC[C@H]1O (stereo partly drawn) [Compound C19] | ≤ 76.5 | ≥ 66.7
Cc1cn2cc(-c3ccc(C[C@@H](C#N)NC(=O)[C@@H]4CN[C@@H](C)[C@H](O)CO4)cc3)cc2c(C)n1 [Compound A98] | ≤ 76.5 | ≥ 66.7
Cc1ncc(C)n2cc(-c3ccc(C[C@@H](C#N)NC(=O)[C@@H]4CN[C@@H](C)[C@H](O)CO4)cc3)cc12 [Compound A131] | ≤ 76.5 | ≥ 66.7
N#C[C@H](Cc1ccc(-c2ccc3c(n2)CCCN3)cc1F)NC(=O)[C@@H]1CNCCCO1 [Compound A119] | ≤ 76.5 | ≤ 40
Cn1c(=O)oc2cc3c(cc21)-c1cc(F)c(CC(C#N)NC(=O)[C@@H]2CNCCCO2)cc1OC3 (stereo partly drawn) [Compound C28] | 76.5 to 93.9 | ≥ 66.7
COC1CNC[C@@H](C(=O)N[C@H](C#N)Cc2ccc(-c3ccc4cnn(C5CCN(C)CC5)c4c3)cc2)OC1 (stereo partly drawn) [Compound H9] | ≤ 76.5 | ≥ 66.7
N#C[C@H](Cc1ccc(-c2ccc(S(=O)(=O)N3CCC3)cc2)cc1F)NC(=O)[C@@H]1CNCCCCO1 [Compound 47] | ≤ 76.5 | ≤ 40
CO[C@@H]1CCNC[C@@H](C(=O)N[C@H](C#N)Cc2ccc(-c3cc4c(C)ncc(C)n4c3)cc2)OC1 [Compound A122] | 76.5 to 93.9 | ≥ 66.7
CO[C@@H]1CCNC[C@@H](C(=O)N[C@H](C#N)Cc2ccc(-c3ccc4c(c3)C3(CCCN(C)C3)C(=O)N4C)cc2F)OC1 (stereo partly drawn) [Compound F12] | ≤ 76.5 | ≥ 66.7
CO[C@H]1CCO[C@H](C(=O)NC(C#N)Cc2cc3c(cc2F)-c2ccc(F)cc2CO3)CNC1 (stereo partly drawn) [Compound B26] | ≤ 76.5 | 40 to 66.7
CO[C@H]1CCO[C@H](C(=O)NC(C#N)Cc2cc3c(cc2F)-c2cc4c(cc2CO3)oc(=O)n4C)CNC1 (stereo partly drawn) [Compound C16] | ≤ 76.5 | ≥ 66.7
CO[C@H]1CCO[C@H](C(=O)N[C@H](C#N)Cc2ccc(-c3cc4c(C)nc(C)cn4c3)cc2F)CNC1 [Compound A94] | ≤ 76.5 | ≤ 40
CO[C@H]1CCO[C@H](C(=O)N[C@H](C#N)Cc2ccc(-c3ccc4c(c3)C3(CN(C)C3)OC4=O)cc2)CNC1 [Compound F20] | ≤ 76.5 | 40 to 66.7
CO[C@H]1CCO[C@H](C(=O)N[C@H](C#N)Cc2ccc(-c3ccc4nnn(C)c4c3)cc2)CNC1 [Compound H18] | ≤ 76.5 | ≤ 40
CO[C@H]1CCO[C@H](C(=O)N[C@H](C#N)Cc2ccc(-c3ccc4c(c3)C3(CCN(C)C3)OC4=O)cc2)CNC1 (stereo partly drawn) [Compound F21] | ≤ 76.5 | 40 to 66.7

SMILES | inhibition at 0.005 µM (DPP1 in HL-60 cells) [%] | inhibition at 0.01 µM (human DPP1 enzyme) [%]
C[C@@H]1NC[C@@H](C(=O)NC(C#N)Cc2cc3c(cc2F)-c2ccc4oc(=O)n(C)c4c2CO3)OC[C@H]1O (stereo partly drawn) [Compound C20] | ≤ 76.5 | ≥ 66.7
CO[C@H]1CCO[C@H](C(=O)N[C@H](C#N)Cc2ccc(-c3ccc4cnn(C)c4c3)cc2F)CNC1 [Compound H19] | ≤ 76.5 | ≥ 66.7
CN1CCN(Cc2ccc(-c3ccc(C[C@@H](C#N)NC(=O)[C@@H]4CNCCCCO4)c(F)c3)cc2)CC1 [Compound 45] | ≤ 76.5 | ≤ 40
Cc1nc(C)c2cc(-c3ccc(C[C@@H](C#N)NC(=O)[C@@H]4CNCCCO4)cc3)cn2c1C [Compound A141] | 76.5 to 93.9 | ≤ 40
CO[C@@H]1CCNC[C@@H](C(=O)N[C@H](C#N)Cc2ccc(-c3ccc4c(n3)CCCN4)cc2)OC1 [Compound A81] | ≤ 76.5 | 40 to 66.7
C[C@@H]1NC[C@@H](C(=O)N[C@H](C#N)Cc2ccc(-c3ccc4nnn(C)c4c3)cc2)OC[C@@H]1O [Compound H30] | ≤ 76.5 | ≤ 40
CO[C@H]1CCO[C@H](C(=O)N[C@H](C#N)Cc2ccc(-c3ccc(S(=O)(=O)N4CCC4)cc3)cc2F)CNC1 [Compound F30] | ≤ 76.5 | 40 to 66.7
CO[C@@H]1CCNC[C@@H](C(=O)N[C@H](C#N)Cc2ccc(-c3cc4c(C)nc(C)cn4c3)cc2)OC1 [Compound A80] | 76.5 to 93.9 | ≥ 66.7
CO[C@@H]1CCNC[C@@H](C(=O)N[C@H](C#N)Cc2ccc(-c3ccc(S(=O)(=O)N4CCC4)cc3)cc2F)OC1 [Compound F17] | ≤ 76.5 | ≥ 66.7
CO[C@H]1CCO[C@H](C(=O)N[C@H](C#N)Cc2ccc(-c3ccc4c(c3)C3(CN(C)C3)OC4=O)cc2F)CNC1 [Compound F26] | ≤ 76.5 | ≥ 66.7
CO[C@H]1CCO[C@H](C(=O)N[C@H](C#N)Cc2ccc(-c3ccc(S(=O)(=O)N4CCC4)cc3)cc2)CNC1 [Compound F29] | ≤ 76.5 | ≤ 40
CN1CCC(n2ncc3ccc(-c4ccc(C[C@@H](C#N)NC(=O)[C@@H]5CNCCCCO5)cc4)cc32)CC1 [Compound H33] | ≤ 76.5 | ≤ 40
CN1CCCC2(C1)C(=O)N(C)c1ccc(-c3ccc(C[C@@H](C#N)NC(=O)[C@@H]4CNCCCCO4)c(F)c3)cc12 (stereo partly drawn) [Compound 41] | ≤ 76.5 | 40 to 66.7
CO[C@@H]1CCNC[C@@H](C(=O)N[C@H](C#N)Cc2ccc(-c3ccc(CN4CCN(C)CC4)cc3)cc2F)OC1 [Compound F15] | ≤ 76.5 | ≥ 66.7
N#C[C@H](Cc1cc2c(cc1F)-c1ccc(F)cc1CO2)NC(=O)[C@@H]1CNCCCO1 [Compound B34] | ≤ 76.5 | 40 to 66.7
CO[C@H]1CCO[C@H](C(=O)N[C@H](C#N)Cc2ccc(-c3ccc4c(n3)CCCN4)cc2F)CNC1 [Compound A95] | ≤ 76.5 | 40 to 66.7
N#CC(Cc1cc2c(cc1F)-c1cc(C3COC3)c(F)cc1CO2)NC(=O)[C@@H]1CNCCCO1 (stereo partly drawn) [Compound B31] | 76.5 to 93.9 | 40 to 66.7
Cn1ncc2ccc(-c3ccc(C[C@@H](C#N)NC(=O)[C@@H]4CNCCCCO4)cc3)cc21 [Compound H35] | ≤ 76.5 | ≤ 40
C[C@@H]1NC[C@@H](C(=O)N[C@H](C#N)Cc2ccc(-c3ccn4ccnc4c3)cc2)OC[C@H]1O [Compound H42] | ≤ 76.5 | ≥ 66.7
